Results taken from patent EP0221541A2, “Quinolonecarboxylic acid derivatives and their preparation” (KYORIN PHARMACEUTICAL CO., LTD., priority 1985, dated 1987).
Converted amounts (≈) assume the structure as drawn.

Tests used:
Assay type in all cases: cell-based
[1] = tested on: Bacillus subtilis PCI 219; test: MIC, antibacterial spectrum (aerobic bacteria); details: Bacillus subtilis, PCI219
[2] = tested on: Staphylococcus aureus 209 P; test: MIC, antibacterial spectrum (aerobic bacteria); details: Staphylococcus aureus, 209P
S. aureus Smith = test: MIC, antibacterial spectrum (aerobic bacteria); details: Staphylococcus aureus
[3] = tested on: S. aureus IID 670 (Terajima); test: MIC, antibacterial spectrum (aerobic bacteria); details: Staphylococcus aureus, IID670
S. epidermidis IID 866 = test: MIC, antibacterial spectrum (aerobic bacteria); details: Staphylococcus epidermidis, IID866
E. faecalis IID 682 = test: MIC, antibacterial spectrum (aerobic bacteria); details: Enterococcus faecalis, IID682
[4] = tested on: Streptococcus pneumoniae IID 552; test: MIC, antibacterial spectrum (aerobic bacteria); details: Streptococcus pneumoniae, IID552
[5] = tested on: S. pyogenes IID 689 (S-8); test: MIC, antibacterial spectrum (aerobic bacteria); details: Streptococcus pyogenes, IID689
S. pyogenes IID 692 = test: MIC, antibacterial spectrum (aerobic bacteria); details: Streptococcus pyogenes, IID692
[6] = tested on: Escherichia coli NIHJ JC-2; test: MIC, antibacterial spectrum (aerobic bacteria); details: NIHJJC2, Escherichia coli NIHJ JC-2, Gram -, 10^6 cells/ml
E. coli ATCC 10536 = test: MIC, antibacterial spectrum (aerobic bacteria); details: Escherichia coli, ATCC10536
E. coli ML 4707 = test: MIC, antibacterial spectrum (aerobic bacteria); details: Escherichia coli, ML4707
[7] = tested on: Proteus vulgaris IFO 3167; test: MIC, antibacterial spectrum (aerobic bacteria); details: Proteus vulgaris, IFO3167
P. mirabilis IID 994 = test: MIC, antibacterial spectrum (aerobic bacteria); details: Proteus mirabilis, IID994
[8] = tested on: Citrobacter freundii IID 976; test: MIC, antibacterial spectrum (aerobic bacteria); details: Citrobacter freundii, IID976
[9] = tested on: Klebsiella pneumoniae KY(GN)6445; test: MIC, antibacterial spectrum (aerobic bacteria); details: Klebsiella pneumoniae
K. pneumoniae 1-220S = test: MIC, antibacterial spectrum (aerobic bacteria); details: Klebsiella pneumoniae, 1220S
[10] = tested on: Salmonella enteritidis IID 604; test: MIC, antibacterial spectrum (aerobic bacteria); details: Salmonella enterica
Shigella sonnei IID 969 = test: MIC, antibacterial spectrum (aerobic bacteria); details: IID969, Shigella sonnei IID 969, Gram -, 10^6 cells/ml
Experimental: Minimal inhibitory concentrations (MICs) were determined in accordance with the method recommended by Japan Society of Chemotherapy.

[11] = tested on: Yersinia enterocolitica IID 981; test: MIC, antibacterial spectrum (aerobic bacteria); details: Yersinia enterocolitica, IID981
[12] = tested on: Serratia marcescens IID 618; test: MIC, antibacterial spectrum (aerobic bacteria); details: Serratia marcescens, IID618
S. marcescens GN 7577 = test: MIC, antibacterial spectrum (aerobic bacteria); details: Serratia marcescens, GN7577
[13] = tested on: Pseudomonas aeruginosa V-1; test: MIC, antibacterial spectrum (aerobic bacteria); details: Pseudomonas aeruginosa, V1
P. aeruginosa IFO 12689 = test: MIC, antibacterial spectrum (aerobic bacteria); details: Pseudomonas aeruginosa, IFO12689
P. aeruginosa IID 1210 = test: MIC, antibacterial spectrum (aerobic bacteria); details: Pseudomonas aeruginosa, IID1210
P. cepacia GIFU 518 = test: MIC, antibacterial spectrum (aerobic bacteria); details: Burkholderia cepacia, GIFU518
P. maltophilia GIFU 2491 = test: MIC, antibacterial spectrum (aerobic bacteria); details: Stenotrophomonas maltophilia, GIFU2491
[14] = tested on: Acinetobacter anitratus IID 876; test: MIC, antibacterial spectrum (aerobic bacteria); details: Acinetobacter calcoaceticus, IID876
[15] = tested on: Alcaligenes faecalis 0114002; test: MIC, antibacterial spectrum (aerobic bacteria); details: Alcaligenes faecalis 0114002, Gram -, 10^6 cells/ml
[16] = tested on: Bacteroides fragilis GM 7000; test: MIC, antibacterial spectrum (anaerobic bacteria); details: Bacteroides fragilis, GM7000
B. fragilis 0558 = test: MIC, antibacterial spectrum (anaerobic bacteria); details: Bacteroides fragilis, 0558
B. fragilis 25285 = test: MIC, antibacterial spectrum (anaerobic bacteria); details: Bacteroides fragilis, 25285
B. distasonis 8503 = test: MIC, antibacterial spectrum (anaerobic bacteria); details: Parabacteroides distasonis, 8503
[17] = tested on: B. thetaiotaomicron (0661); test: MIC, antibacterial spectrum (anaerobic bacteria); details: Bacteroides thetaiotaomicron
[18] = tested on: Fusobacterium necrophorum S-45; test: MIC, antibacterial spectrum (anaerobic bacteria); details: Fusobacterium necrophorum, S45
[19] = tested on: Eubacterium lentum GAI 5242; test: MIC, antibacterial spectrum (anaerobic bacteria); details: Eggerthella lenta, GAI5242
[20] = tested on: Propionibacterium acens 11828; test: MIC, antibacterial spectrum (anaerobic bacteria); details: Propionibacterium, 11828
[21] = tested on: Peptococcus magnus KY 017; test: MIC, antibacterial spectrum (anaerobic bacteria); details: Finegoldia magna, KY017
C. perfringens KYA 13123 = test: microbe, parasite or virus in culture; details: Clostridium perfringens, KYA13123
C. ramosum = test: MIC, antibacterial spectrum (anaerobic bacteria); details: Thomasclavelia ramosa
[22] = tested on: Peptostreptococcus anaerobius KYA 27337; test: MIC, antibacterial spectrum (anaerobic bacteria); details: Peptostreptococcus anaerobius, KYA27337
Pst. micros UPI 5464-1 = test: MIC, antibacterial spectrum (anaerobic bacteria); details: Parvimonas micra, UPI54641, Pst. micros UPI 5464-1, Gram +, 10^6 cells/ml
[23] = tested on: Veillonella parvula KYA 10790; test: MIC, antibacterial spectrum (anaerobic bacteria); details: KYA10790, Veillonella parvula KYA 10790, Gram -, 10^6 cells/ml

O=C(O)c1cn(C2CC2)c2cc(N3CCNCC3)c(F)cc2c1=O [CPFX, Ciprofloxacin, reference compound]
MIC [1]: 0.05 µg/mL (≈ 0.151 µM)
MIC [2]: 0.2 µg/mL (≈ 0.604 µM)
MIC (S. aureus Smith): 0.39 µg/mL (≈ 1.18 µM)
MIC [3]: 0.2 µg/mL (≈ 0.604 µM)
MIC (S. epidermidis IID 866): 0.2 µg/mL (≈ 0.604 µM)
MIC (E. faecalis IID 682): 0.78 µg/mL (≈ 2.35 µM)
MIC [4]: 0.78 µg/mL (≈ 2.35 µM)
MIC [5]: 0.78 µg/mL (≈ 2.35 µM)
MIC (S. pyogenes IID 692): 0.78 µg/mL (≈ 2.35 µM)
MIC [6]: ≤ 0.0063 µg/mL
MIC (E. coli ATCC 10536): 0.0125 µg/mL (≈ 0.0377 µM)
MIC (E. coli ML 4707): 0.0125 µg/mL (≈ 0.0377 µM)
MIC [7]: 0.0125 µg/mL (≈ 0.0377 µM)
MIC (P. mirabilis IID 994): 0.0125 µg/mL (≈ 0.0377 µM)
MIC [8]: 0.0125 µg/mL (≈ 0.0377 µM)
MIC [9]: 0.0125 µg/mL (≈ 0.0377 µM)
MIC (K. pneumoniae 1-220S): 0.05 µg/mL (≈ 0.151 µM)
MIC [10]: 0.0125 µg/mL (≈ 0.0377 µM)
MIC (Shigella sonnei IID 969): 0.0125 µg/mL (≈ 0.0377 µM)
MIC [11]: 0.05 µg/mL (≈ 0.151 µM)
MIC [12]: 0.05 µg/mL (≈ 0.151 µM)
MIC (S. marcescens GN 7577): 0.39 µg/mL (≈ 1.18 µM)
MIC [13]: 0.05 µg/mL (≈ 0.151 µM)
MIC (P. aeruginosa IFO 12689): 0.2 µg/mL (≈ 0.604 µM)
MIC (P. aeruginosa IID 1210): 0.2 µg/mL (≈ 0.604 µM)
MIC (P. cepacia GIFU 518): 0.39 µg/mL (≈ 1.18 µM)
MIC (P. maltophilia GIFU 2491): 0.39 µg/mL (≈ 1.18 µM)
MIC [14]: 0.1 µg/mL (≈ 0.302 µM)
MIC [15]: 0.2 µg/mL (≈ 0.604 µM)
MIC [16]: 6.25 µg/mL (≈ 18.9 µM)
MIC (B. fragilis 0558): 3.13 µg/mL (≈ 9.45 µM)
MIC (B. fragilis 25285): 6.25 µg/mL (≈ 18.9 µM)
MIC (B. distasonis 8503): 6.25 µg/mL (≈ 18.9 µM)
MIC [17]: 12.5 µg/mL (≈ 37.7 µM)
MIC [18]: 1.56 µg/mL (≈ 4.71 µM)
MIC [19]: 0.78 µg/mL (≈ 2.35 µM)
MIC [20]: 12.5 µg/mL (≈ 37.7 µM)
MIC [21]: 0.39 µg/mL (≈ 1.18 µM)
MIC (C. perfringens KYA 13123): 0.39 µg/mL (≈ 1.18 µM)
MIC (C. ramosum): 12.5 µg/mL (≈ 37.7 µM)
MIC [22]: 1.56 µg/mL (≈ 4.71 µM)
MIC (Pst. micros UPI 5464-1): 0.2 µg/mL (≈ 0.604 µM)
MIC [23]: 0.2 µg/mL (≈ 0.604 µM)
